The values below come from US20250378918A1, “Phenotype-Based Chemical Screens” (Nemametrix, priority 2015, published 2025).

One test deals with zebrafish larvae. As to the kind of experiment: phenoBlast query of behavioral profile database with haloperidol profile. In kind it is in vivo. Particulars: screened at 10 μM; cutoff = DMSO control well most similar to haloperidol query; FIGS. 2A-2C. How it is done:
To identify compounds with haloperidol-like behavioral profiles, the behaviors of zebrafish larvae in 29,760 compound-treated wells (including 4,300 known bioactive compounds, 20,000 uncharacterized novel compounds and more than 5,000 DMSO controls) were systematically quantified. Behavioral profiles from each well were compiled into a database. Then, the average profile of three haloperidol (5 μM)-treated wells was used to query the compiled database for additional compounds that cause haloperidol-like phenotypes. […] Four of the known hit compounds were antipsychotic drugs (including three butyrophenones and one tricyclic). A fifth compound, DO 897/99 has been under investigation for treatment of schizophrenia and a sixth compound, lidoflazine, is structurally related to the known antipsychotic amperozide and other antipsychotics in the diphenylbutylpiperidine class (e.g., clopimozide, fluspirilene and pimozide) (FIG. 2C).
The Actiprobe library (TimTec Corporation) contains 10,000 compounds dissolved in DMSO at a stock concentration of 1 mg/ml (˜3 mM). The Chembridge library (Chembridge Corporation) contains 10,000 compounds dissolved in DMSO at a stock concentration of 1 mM. The Spectrum Collection (MicroSource Discovery) contains 2,320 compounds dissolved in DMSO at a concentration of 10 mM. The Prestwick library (Prestwick Chemical) contains 1,280 approved drugs dissolved in DMSO at a stock concentration of 10 mM. […]
Digital video were captured at 25 frames per second using an AVT Pike digital camera. […] To analyze digital video recordings, a motion index was calculated by frame differencing. […]
For each well, the raw motion index from each assay was concatenated into a 10,500-point motion index time series. […] The haloperidol query was calculated by averaging the time series from three replicate haloperidol-treated wells. To calculate the phenoBLAST distance metric, L1 distances were calculated by: phenoBLAST Distance=sum (abs(query-well)), where ‘query’ and ‘well’ indicate their associated time series.

The next test concerns larval zebrafish. Kind of test: battery of ten zebrafish behavioral assays (motion index). In kind it is in vivo. The settings on record: for haloperidol-like behavioral phenotype: antipsychotic drugs, FIG. 1B. How it is done:
Haloperidol, a butyrophenone, is known to bind at least 20 molecular targets found in the human brain. To determine how haloperidol affects zebrafish behavior, a battery of ten behavioral assays was developed to compare behavioral profiles from control (DMSO) and haloperidol-treated animals.
A large number of fertilized eggs (up to 20,000 embryos per day) were collected from group matings of Ekkwill zebrafish. Embryos were raised in hatching jars at 28° C. on a 14/10 hour light/dark cycle until 3 days post fertilization (d.p.f.), then transferred to an incubator under the same conditions until 7 d.p.f. Groups of approximately ten larvae (7 d.p.f.) were distributed into the wells of clear flat bottom square well 96-well plates filled with E3 medium (300 μl). Larvae were then incubated at 25° C. on the bench top for one hour prior to chemical treatment and subsequent experiments. All zebrafish protocols were approved by the Institutional Animal Care and Use Committee at Massachusetts General Hospital or at Teleos Therapeutics, LLC.
The Actiprobe library (TimTec Corporation) contains 10,000 compounds dissolved in DMSO at a stock concentration of 1 mg/ml (˜3 mM). The Chembridge library (Chembridge Corporation) contains 10,000 compounds dissolved in DMSO at a stock concentration of 1 mM. The Spectrum Collection (MicroSource Discovery) contains 2,320 compounds dissolved in DMSO at a concentration of 10 mM. The Prestwick library (Prestwick Chemical) contains 1,280 approved drugs dissolved in DMSO at a stock concentration of 10 mM. The Neurotransmitter library (Biomol International; cat. No. 2810) contains 700 compounds dissolved in DMSO at a stock concentration of 10 mM. All compounds were diluted in E3 buffer and screened at 10 μM final concentration and <1% DMSO. Negative controls were treated with an equal volume of DMSO. Stock solutions were added directly to zebrafish in the wells of a 96-well plate, mixed and allowed to incubate for 1 h at room temperature before behavioral evaluation in the Behavioral Battery of assays. Reordered hit compounds were dissolved in DMSO to a stock concentration of 30 mM and added to wells as described above. Hits were retested at a concentration range of 50, 10, 5, 1, 0.5, 0.1, and 0.05 μM in triplicate; assays for retesting were run at 10-minute and 1-hour incubation time points.
Digital video were captured at 25 frames per second using an AVT Pike digital camera. High intensity LEDs were used to deliver violet (405 nm), blue (450 nm), and red (660 nm) light stimuli. Acoustic stimuli were delivered using push-style solenoids to tap the stage. Stimuli and digital recordings were applied to the entire 96-well plate simultaneously. Instrument control and data acquisition were performed using custom MATLAB scripts. Each assay, including video recording and data processing, took ˜40 s per plate per 30 s assay, enabling us to routinely screen 96 wells against a battery of ten assays in less than ten minutes. To analyze digital video recordings, a motion index was calculated by frame differencing. […] The behavioral battery was comprised of ten assays (Assay 1-10) performed in numerical order. phenoBlast ranking and statistics

As for `COc1ccccc1N1CCN(CCCCNC(=O)c2ccc3ccccc3c2)CC1.Cl.Cl` [DO 897/99], the “phenoBlast similarity to haloperidol (5 μM) query profile, hit ranking” value (shortened to “phenoBlast similarity to haloperidol”) in the test with zebrafish larvae is on record as “hit compounds”.
Take `O=C(CCCN1CCC(O)(c2ccc(Br)cc2)CC1)c1ccc(F)cc1` [bromperidol]: the haloperidol-like behavioral phenotype result in the test with larval zebrafish is “cause haloperidol-like behaviors”. Further, in the test on zebrafish larvae, the “phenoBlast similarity to haloperidol” value is reported as “top ranked hit compound”.
Take `O=C(CCCN1CC=C(n2c(=O)[nH]c3ccccc32)CC1)c1ccc(F)cc1` [droperidol]: the haloperidol-like behavioral phenotype result in the test with larval zebrafish is listed as “cause haloperidol-like behaviors”.
For the compound `O=C(CCCN1CCC(O)(c2ccc(Cl)cc2)CC1)c1ccc(F)cc1` [haloperidol], the “effect on locomotion of larval zebrafish” value in the test with larval zebrafish (high concentrations (50 μM)) is on record as “locomotor impairment”. The “motion index in behavioral battery” value in the test on larval zebrafish (lower concentrations (5 μM), FIG. 1A) is reported as “complex pattern of increased activity”.
`Cc1cccc(C)c1NC(=O)CN1CCN(CCCC(c2ccc(F)cc2)c2ccc(F)cc2)CC1` [lidoflazine]: in the test on zebrafish larvae, the “phenoBlast similarity to haloperidol” value is recorded as “hit compounds”.
Take `c1ccc2c(c1)Nc1ccccc1S2` [phenothiazine]: the haloperidol-like behavioral phenotype entry in the test on larval zebrafish is listed as “cause haloperidol-like behaviors”.
Regarding `CN1CCN(CCCN2c3ccccc3Sc3ccc(Cl)cc32)CC1` [prochlorperazine], the haloperidol-like behavioral phenotype entry in the test with larval zebrafish is “cause haloperidol-like behaviors”.
Still for that read-out and setting: the same measure for `CSc1ccc2c(c1)N(CCC1CCCCN1C)c1ccccc1S2` (stereo not shown) [thioridazine]: “cause haloperidol-like behaviors”.
